Measured values reported in patent publication US20090208462A1, “Methods of Treatment” (IMPERIAL INNOVATIONS LIMITED, priority 2004, published 2009).
Entries after “also recorded” stand apart in the source; their conditions may differ. Each block holds one molecule with its values, some of them ahead of it.

Legend:
[1] = system: melanopsin transduction cascade; test: Properties of the melanopsin transduction cascade: drug effects on light evoked current; assay type: cell-based, mouse; conditions: for effect on light induced current / effect on light evoked current / effect on photoresponses: 420 nm 10 sec; for effect on light induced current / effect on light evoked current / effect on photoresponses / effect on light evoked currents: 9-cis retinal 20 μM; for effect on light evoked currents: 420 nm 10 sec 8×10^14 photons/cm^2/s
Experimental: (§1) Mouse Neuro-2a cells (American Type Culture Collection; Cat no. CCL-131) were maintained at 37° C. in D-MEM, Dulbecco's Modified Eagle Medium with GlutaMAX™ I, 4500 mg/l D-Glucose, Sodium Pyruvate (D-MEM, Invitrogen) with 10% foetal bovine serum, 1% non-essential amino acids and 20 μg/ml gentomycin in a 5% CO2 atmosphere. Cells were trypsintsed, split and cultured at 1×10^5/ml in 90 mm dishes for 24 hours prior to transfection with plasmid vectors using lipofectamine (Invitrogen) in serum-free medium. DNA to lipid ratio was 10 μg DNA: 100 μg lipid. After transfection serum free medium was replaced with normal medium. On the following day, 2-3 days before study, cell differentiation was induced using 10 μM retinoic acid (Provencio et al., 2000). Starting from this point cells were kept in darkness. On the day of recording, glass coverslips serving as a substrate for cell attachment were transferred to the recording chamber. The perfusion solution contained 140 mM NaCl, […], 1 mM MgCl2, 2 mM CaCl2, 5 mM glucose, 10 mM HEPES (pH 7.3-7.4; 24° C.). Successfully transfected cells were identified by EGFP fluorescence under a 480 nm stimulus light using an OLYMPUS BX51WI microscope. At this point, retinal isoforms (20 μM; 9-cis and all-trans from Sigma-Aldrich; 11-cis from Dr R K Crouch, Medical University of S.C.) were added to the perfusion solution as necessary and cells kept in the dark for at least 1 hour before recording. Whole-cell patch-clamp recordings were made with pipettes containing 140 mM KCl, 10 mM NaCl, 1 mM MgCl2, 10 mM HEPES, 10 mM EGTA. Osmolarity was adjusted to 285±5 mosmol (milliosmol) 1^−1 and pH to 7.3-7.4 with KOH. Open pipette resistance was 2-5 MΩ (mega-ohms), and access resistance during recordings was <20 MΩ. Currents were recorded (Axopatch 200B, Axon Instruments) in neurons voltage clamped at holding potentials of −50 mV (milli-volt). The records were filtered at 1 kHz (kilohertz) and sampled at 20 kHz. Drugs were obtained from Sigma Aldrich, with the exception of NEM (N-ethylmaledomide) (Calbiochem), and DL-AP5, NF023, KT5720, U73122 and thapsigargin (all Tocris Cookson), drugs applied in superfusion were applied for 15-20 minutes prior to light stimulation.
(§2) Light stimuli were generated using a Cairn Optoscan Xenon arc source comprising a slit monochromator. Unless otherwise stated al stimuli were 10 sec in duration with a 20 nm half-bandwidth. Irradiance was measured using an optical powermeter (Macam Photometrics) and converted to photon flux. […] The nature of glutamate receptor expression in Neuro-2a cells remains ambiguous, nonetheless we excluded the possibility that this might be the origin of the melanopsin light response by application of the selective NMDA antagonist APV (2-amino-5-phosphonovaleric acid) (100 μM) which had no effect upon the light sensitive current (data not shown)

human melanopsin = molecular target: T1, human melanopsin (Homo sapiens, UniProt Q9UHM6); test: Retinaldehyde dependence of the light evoked current in melanopsin expressing cells; assay type: cell-based; conditions: for light-induced response to 540 nm stimulation itself: 20 nm half-bandwidth; for light evoked peak inward current after retinal preloading / change in 420 nm light evoked current after 540 nm light exposure: retinal 20 μM; for light evoked peak inward current after retinal preloading: 1 hour, 420 nm, 8×10^14 photons/cm^2/sec; for change in 420 nm light evoked current after 540 nm light exposure: 540 nm 10 mins (2×10^14 photons/cm^2/s), retest 420 nm 10 sec
T1 construct: expressed in transfected cells; host or cells: Mouse Neuro-2a cells (ATCC CCL-131), lipofectamine transfection with the pCMS-EGFP-based melanopsin vector, differentiated with retinoic acid
T1 sequence (Q9UHM6 1-478): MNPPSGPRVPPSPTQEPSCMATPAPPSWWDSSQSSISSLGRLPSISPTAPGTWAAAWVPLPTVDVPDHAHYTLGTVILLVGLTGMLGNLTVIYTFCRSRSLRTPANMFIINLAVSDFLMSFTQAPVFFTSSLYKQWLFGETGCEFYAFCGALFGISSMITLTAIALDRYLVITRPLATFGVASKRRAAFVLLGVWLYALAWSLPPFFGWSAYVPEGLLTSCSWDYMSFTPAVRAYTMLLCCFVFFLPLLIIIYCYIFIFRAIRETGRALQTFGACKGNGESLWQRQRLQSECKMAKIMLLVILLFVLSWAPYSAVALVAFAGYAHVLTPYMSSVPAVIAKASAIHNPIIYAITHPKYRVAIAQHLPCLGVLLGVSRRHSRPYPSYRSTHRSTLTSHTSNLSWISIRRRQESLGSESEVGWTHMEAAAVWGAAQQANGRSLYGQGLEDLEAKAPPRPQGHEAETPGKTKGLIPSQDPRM
Experimental: as §1, §2

Neuro-2a cells [2] = test: Whole cell recordings of light evoked current in Neuro-2a cells expressing human melanopsin; assay type: cell-based, mouse
Excerpt: The full length coding sequence of human melanopsin was amplified from retinal cDNA using Pfu-Turbo DNA polymerase (Stratagene) and the following restriction tagged primers: […]
The product was cloned into the pLITMUS28 Vector (New England Biolabs) and sequenced to confirm that there was no deviation from the reported sequence NM_033282; SEQ ID NO: 1). The product was subsequently cloned into the pCMS-EGFP vector (BD Biosciences), such that expression would be driven by the CMV immediate early promoter. A C-terminal 6×His-tagged melanopsin construct was generated in a similar manner, using the following primers: […]
as §1, §2

Neuro-2a cells [3] = test: Spectral sensitivity of the light evoked current (pCI-neo human melanopsin); assay type: cell-based, mouse; conditions: 11-cis retinal, mean±SEM
Experimental: For analyses of spectral sensitivity EGFP expression was excluded by employing the pCI-neo mammalian expression vector (Promega).
as §1, §2
In order to assess the correspondence, if any, between the Neuro-2a light response and these action spectra we assessed cellular responses to stimuli ranging from 300 to 540 nm in cells transfected with a pCI-neo expression vector (Promega) driving human melanopsin. EGFP was not included as a marker of expression for these experiments because of its light absorbing and fluorescent properties. […]

Molecule: NC(CCCP(=O)(O)O)C(=O)O (racemic) [APV, 2-amino-5-phosphonovaleric acid]
- effect upon the light sensitive current ([1]; 100 μM, data not shown): no effect

Molecule: Nc1nc2c(nc(Br)n2[C@@H]2O[C@@H]3COP(=O)(O)O[C@H]3[C@H]2O)c(=O)[nH]1 [8-Br-cGMP]
- effect on light response ([1]; 1 mM in pipette): abolished
- effect on light induced current ([1]; in patch pipette, 100 μM and 1 nM): dose dependent suppression

- light-induced response to 540 nm stimulation itself (human melanopsin): did not in itself evoke
- light evoked peak inward current after retinal preloading (human melanopsin): Significant photosensitivity
- light evoked peak inward current after retinal preloading (human melanopsin; listed as 9-cis-retinal): more responsive
- change in 420 nm light evoked current after 540 nm light exposure (human melanopsin): only a small potentiation
Molecule: CC1=C(/C=C/C(C)=C\C=C\C(C)=C\C=O)C(C)(C)CCC1 [9-cis retinal]

- light evoked peak inward current after retinal preloading (human melanopsin; listed as 11-cis-retinal): more responsive
Molecule: CC1=C(/C=C/C(C)=C/C=C/C(C)=C/C=O)C(C)(C)CCC1 [11-cis retinal]
- light evoked peak inward current after retinal preloading (human melanopsin): Significant photosensitivity; also recorded: significantly more effective

Molecule: [Cd+2] [Cd^2+]
- effect on light evoked current ([1]; 100 μM, and/or removal of calcium from perfusate): little significant effect

Molecule: Nc1nc2c(ncn2[C@@H]2O[C@H](COP(=O)(O)OP(=O)(O)OP(O)(O)=S)[C@@H](O)[C@H]2O)c(=O)[nH]1 [GTPγS]
- effect on photoresponses ([1]; 1 mM in patch pipette): largely abolished; also recorded: abolish

Molecule: CCCCCCOC(=O)[C@]1(O)C[C@@H]2O[C@@]1(C)n1c3ccccc3c3c4c(c5c6ccccc6n2c5c31)C(=O)NC4 [KT5720]
- effect on light induced current ([1]; 1 μM): did not affect

Molecule: CCN1C(=O)C=CC1=O [NEM, N-ethylmaledomide]
- effect on light evoked currents ([1]; 50 μM in bath): no effect
- effect on light evoked currents ([1]; 50 μM in bath, listed as N-ethyl): did not antagonise

Molecule: O=C(Nc1cccc(C(=O)Nc2ccc(S(=O)(=O)O)c3cc(S(=O)(=O)O)cc(S(=O)(=O)O)c23)c1)Nc1cccc(C(=O)Nc2ccc(S(=O)(=O)O)c3cc(S(=O)(=O)O)cc(S(=O)(=O)O)c23)c1 [NF023]
- effect on light evoked currents ([1]; up to 1 μM in bath): no effect; also recorded: did not antagonise

Molecule: Cn1cc(C2=C(c3cn(CCCSC(=N)N)c4ccccc34)C(=O)NC2=O)c2ccccc21 [RO31-8220]
- effect on light induced current ([1]; 100 nM): did not affect

Molecule: COc1ccc2c(c1)CC[C@@H]1[C@@H]2CC[C@]2(C)[C@@H](NCCCCCCN3C(=O)C=CC3=O)CC[C@@H]12 [U73122]
- effect on light induced current ([1]; 50 μM): did not affect; also recorded: did not block

- light-induced response to 540 nm stimulation itself (human melanopsin): did not in itself evoke
- light evoked peak inward current after retinal preloading (human melanopsin): modest light response
Molecule: CC1=C(/C=C/C(C)=C/C=C/C(C)=C/C=O)C(C)(C)CCC1 [all-trans retinal]
- change in 420 nm light evoked current after 540 nm light exposure (human melanopsin): large increase; also recorded: three-fold increase

Molecule: Cc1ccc(C(=O)Nc2ccc(S(=O)(=O)O)c3cc(S(=O)(=O)O)cc(S(=O)(=O)O)c23)cc1NC(=O)c1cccc(NC(=O)Nc2cccc(C(=O)Nc3cc(C(=O)Nc4ccc(S(=O)(=O)O)c5cc(S(=O)(=O)O)cc(S(=O)(=O)O)c45)ccc3C)c2)c1 [suramin]
- effect on photoresponses ([1]; 100 μM in bath): largely abolished; also recorded: abolish

Molecule: C/C=C(/C)C(=O)O[C@H]1C(C)=C2[C@H]([C@@H]1OC(=O)CCCCCCC)[C@@](C)(OC(C)=O)C[C@H](OC(=O)CCC)[C@@]1(O)[C@H]2OC(=O)[C@@]1(C)O [thapsigargin]
- effect on light evoked current ([1]; 5 to 10 μM in zero calcium perfusates for 15-20 mins): abolished

B1: human melanopsin: opsin photoactivator, SEQ ID NO:2, expressed from CMV-driven plasmid vector in Neuro-2a cells (protein, listed as Homo sapiens)
chain: MNSGRVSTSCMATASWWDSSSSSSGRSSTAGTWAAAWVTVDVDHAHYTGTVVGTGMGNTVYTCRSRSRTANMNAVSDMSTAVTSSYKWGTGCYACGAGSSMTTAADRYVTRATGVASKRRAAVGVWYAAWSGWSAYVGTSCSWDYMSTAVRAYTMCCVYCYRARTGRATGACKGNGSWRRSCKMAKMVVSWAYSAVAVAAGYAHVTYMSSVAVAKASAHNYATHKYRVAAHCGVGVSRRHSRYSYRSTHRSTTSHTSNSWSRRRSGSSVGWTHMAAAVWGAAANGRSYGGDAKARGHATGKTKGSDRM
modifications: Human melanopsin
- light evoked current, intensity dependence (Neuro-2a cells [2]; 420 nm, 10 sec, 8×10^13 or 8×10^14 photons/cm^2/sec, whole cell recording): intensity dependent sustained inward current
- cellular response to light exposure (Neuro-2a cells [2]; Neuro-2a cells expressing human melanopsin, 9-cis retinal 20 μM, 1 hour, 420 nm, 10 sec stimulus): marked cellular response
- light sensitivity (Neuro-2a cells [2]; absence of exogenous retinal): not light sensitive
- reversal potential of the response (Neuro-2a cells [2]; light-activated current, Neuro-2a cells): 0 to −10 mV
- peak light evoked slope conductance (Neuro-2a cells [2]; voltage ramp −100 to +100 mV, linear between −100 and −50 mV, 9-cis retinal, mean±SEM, n=13): 6.46±0.82 nS
- light evoked current (Neuro-2a cells [3]; 360 nm, 3×10^14 photons/cm^2/s): 72.5±19 pA
- light evoked current (Neuro-2a cells [3]; 420 nm, 8×10^14 photons/cm^2/s): 80±11 pA
- light evoked current (Neuro-2a cells [3]; 440 nm, 2×10^15 photons/cm^2/s): 32.7±14 pA
- light evoked current (Neuro-2a cells [3]; 490 nm): 8.5±1.2 pA
- light evoked current (Neuro-2a cells [3]; 540 nm, 2×10^14 photons/cm^2/s): 2.0±1.2 pA
